This is an account of results in paper PMC10970924 (Life, 2024).

Structures are written as SMILES. Where “and” joins values, the source holds several entries; their conditions need not be identical. Equal values may be shown once. A value given as a limit tells only on which side of the number the result lay.

The test system of series [1] is HCT-116. In words: Mitochondrial membrane potential, rhodamine 123 flow cytometry. Conditions: tumor cells (HCT-116 in Figure 4a), 72 h, IC50 or higher. Format: cell-based, human. As to the method: Cells were seeded in a 12-well plate at a density of 1 × 10^5 cells/well and incubated for 24 h at 37 °C in a humid atmosphere with 5% CO2 prior to treatment. Cells were bathed in complete DMEM media containing the respective compounds, using a solvent (dH2O/DMSO) as a negative control. After 72 h, the nutrient medium over cells containing the floating cells was collected into tubes, and then the adherent cells were trypsinized and added to the fraction of floating cells. Cell suspensions were then centrifuged, and the pellet was suspended in phosphate-buffered saline (PBS) to a final density of 5 × 10^5 cells/mL. Cell suspension in a volume of 250 μL and 500 nM rhodamine 123 were added to a rounded-well plate, followed by incubation for 30 min at 25° C. Measurements were conducted using flow cytometry on the Millipore Guava EasyCyte HT Flow Cytometer System in a green fluorescent channel.

The test system of series [2] is MCF-7. In words: Proliferation by impedance biosensor (RTCA DP Analyzer). Format: cell-based, human. To be noted: test concentration selected from biosensor data. As to the method: (§1) The effect of the test compounds on the proliferation of multiple cell lines was assessed in real time using the RTCA DP Analyzer (Roche, Basel, Switzerland). For this purpose, we used specialized E-plates containing wells similar in size to a standard 96-well plate, but their bottoms were covered with microelectrodes to assess impedance. When cells adhere to the microelectrodes, the impedance of the well changes, which allows us to calculate the cell index proportional to the cell number. In the experiment, cells were seeded in the E-plate at densities of 20,000 cells per milliliter (180 μL/well). At 24 h post-cell attachment, 20 μL of compounds at various test concentrations or solvent as a control were introduced, and cells were then cultured with real-time impedance registration for 5 days.

The nature of series [3]: MTS cytotoxicity assay, statements over the cell panel. It is filed as cell-based. To be noted: human, tumor and conditionally normal cells; MTS dose–response curves, high concentrations; read-out: Viable cells remaining.
Protocol: The cytotoxicity of the compounds under study was assessed using MTS assay on cell cultures. Cells were seeded into 96-well plates at a concentration of 10,000–20,000 cells/mL. After 24 h, gradient concentrations of the compounds were added to the culture medium and the plates were incubated for 72 h. Subsequently, the culture medium was replaced with MTS reagents (Sigma-Aldrich, Burlington, MA, USA) (MTS:PMS (0.18:0.0092 mg/mL)) and dissolved in phenol-free RPMI 1640 medium. After 2 h of incubation, the resulting water-soluble formazan was measured using the TECAN Infinite M200 Pro microplate reader at wavelengths of 555/750 nm. As a control, equivalent volumes of the solvents in which each compound was dissolved (dH2O/DMSO) were used. To calculate the percentage of viable cells relative to the control, which was considered 100%, dose-response curves were plotted against the logarithm of the compound concentration. The concentration of the compound at which cell growth is inhibited by 50% relative to the control was taken as the inhibitory concentration IC50 and calculated using Origin Pro software 8.0.1. The study was conducted in triplicates and in three independent repetitions.
Another series has as its system HCT-15. Kind of series: Colony formation assay. It is filed as cell-based. To be noted: Homo sapiens, HCT-15, 72 h, incubation three days, read-out: Inhibitory concentration IC50, HCT-15. As to the method: (§2) Cells were cultured in a 24-well plate with 1 mL of DMEM nutrient medium for 24 h. […] The experiment was conducted in triplicate and in two or three independent repetitions. Only solvent was added to the control wells instead of the test compounds. Incubation with the drugs continued for three days, after which the grown colonies were washed with cold PBS solution and fixed in a fixing buffer (10% acetic acid, 10% methanol in distilled water) for 15 min. The colonies were stained with a 0.4% solution of crystal violet in 20% ethanol for 30 min and then washed 3 times with dH2O and analyzed under a microscope. The colonies were then dissolved in 10% acetic acid for 40 min on a shaker, and the absorbance of the lysate was read at 590 nm. Results were expressed as a percentage relative to the control, and a dose–response curve was plotted to determine the IC50 value.

The subject of series [4] is HSF. Kind of series: Colony formation assay. To be noted: Homo sapiens, 72 h, incubation three days, read-out: Inhibitory concentration IC50, HSF. It is filed as cell-based. The method, then: as §2
In a further series the test system is NCI-H322M. In words: Colony formation assay. Format: cell-based. Conditions: Homo sapiens, 72 h, incubation three days, read-out: Inhibitory concentration IC50, NCI-H322M. The method, then:
as §2

Series [5] has as its system MDA-MB-231. In words: Colony formation assay. It is filed as cell-based. Conditions: Homo sapiens, MDA-MB-231, 72 h, incubation three days, read-out: Inhibitory concentration IC50, MDA-MB-231. As to the method: as §2
The next series concerns SNB-19. In words: Colony formation assay. It is filed as cell-based. To be noted: Homo sapiens, SNB-19, 72 h, incubation three days, read-out: Inhibitory concentration IC50, SNB-19. As to the method:
as §2

The next series concerns C2C12. In words: Colony formation assay. To be noted: Mus musculus, C2C12, 72 h, incubation three days, read-out: Inhibitory concentration IC50, C2C12. Format: cell-based, mouse. The method, then: as §2
The next series can be described thus: Colony formation assay. It is filed as cell-based, mouse. To be noted: mouse, C2C12 cells, 100 μM, read-out: C2C12 cells remaining viable. As to the method: as §2
Series [6] relates to MCF-7. In words: Proliferation by impedance biosensor (RTCA DP Analyzer). Format: cell-based. Conditions: Homo sapiens, MCF7, 72 h, incubation three days, read-out: IC50 inhibitory concentration, MCF-7.
A further series concerns MCF-7 cells. In words: Apoptosis induction, Annexin V-FITC/DAPI flow cytometry. It is filed as cell-based, human. The method, then:
MCF-7 cells were seeded at a concentration of 15,000 cells/mL in a 6-well plate. Then, 24 h later the cells were treated with different concentrations of DOX-2 for 72 h. The nutrient medium over cells containing the floating cells was collected into tubes, and then the adherent cells were trypsinized and added to the fraction of floating cells. Then, cells were washed, placed in a binding buffer, stained with Annexin V-FITC/DAPI, and analyzed using the flow cytofluorimeter BD FACSCalibur™ (BD Biosciences, Franklin Lakes, NJ, USA). A total of 1% Triton X-100 was used as a control apoptosis inducer.

The next series relates to SF-539. In words: Proliferation by impedance biosensor (RTCA DP Analyzer). It is filed as cell-based. Conditions: Homo sapiens, SF-539, 72 h, incubation three days, read-out: IC50 inhibitory concentration, SF-539. As to the method: as §1
Series [7] has as its system HSF. The series is described as above. It is filed as cell-based. Conditions: Homo sapiens, 72 h, incubation three days, read-out: IC50 inhibitory concentration, HSF. The method, then:
as §1

The subject of another series is PC-3. The series is described as above. Format: cell-based. To be noted: Homo sapiens, PC-3, 72 h, incubation three days, read-out: IC50 inhibitory concentration, PC-3. The method, then: as §1
The subject of series [8] is MDA-MB-231. The description is as above. To be noted: Homo sapiens, MDA-MB-231, 72 h, incubation three days, read-out: IC50 inhibitory concentration, MDA-MB-231. It is filed as cell-based. As to the method: as §1
For series [9], the system named is HCT-116. Described as above. To be noted: Homo sapiens, HCT-116, 72 h, incubation three days, read-out: IC50 inhibitory concentration, HCT-116. Format: cell-based. The method, then:
as §1

For `COc1cccc2c1C(=O)c1c(O)c3c(c(O)c1C2=O)CC(O)(C(=O)CO)CC3OC1CC(NC(=O)c2cnc(C)c3c2COC(C)(C)O3)C(O)C(C)O1` (stereo not drawn) [DOX-1, N-(3-hydroxy-2-methyl-6-((3,5,12-trihydroxy-3-(2-hydroxyacetyl)-10-methoxy-6,11-dioxo-1,2,3,4,6,11-hexahydrotetracen-1-yl)oxy)tetrahydro-2H-pyran-4-yl)-2,2,8-trimethyl-4H-[1,3]dioxino[4,5-c]pyridine-5-carboxamide], the “Effect on mitochondrial potential ΔΨ (in words)” value in the series on HCT-116 [1] is “significant number of cells with reduced mitochondrial potential”.
In the series on MCF-7 [2] (Homo sapiens, MCF7), `COc1cccc2c1C(=O)c1c(O)c3c(c(O)c1C2=O)CC(O)(C(=O)CO)CC3OC1CC(NC(=O)/C=C/c2cnc(C)c3c2COC(C)(C)O3)C(O)C(C)O1` (stereo not drawn) [DOX-2, (E)-N-(3-hydroxy-2-methyl-6-((3,5,12-trihydroxy-3-(2-hydroxyacetyl)-10-methoxy-6,11-dioxo-1,2,3,4,6,11-hexahydrotetracen-1-yl)oxy)tetrahydro-2H-pyran-4-yl)-3-(2,2,8-trimethyl-4H-[1,3]dioxino[4,5-c]pyridin-5-yl)acrylamide] registered an IC20 of 1.5 µM. Further, in the series on MCF-7 [2], the “IC0, MCF-7” value is 0.4 µM. Besides, the “IC4, MCF-7” value in the series on MCF-7 [2] is 0.7 µM. Moreover, the “IC30, MCF-7” value in the series on MCF-7 [2] is 5 μM and 5 µM (IC30) μM. The “IC60, MCF-7” value in the series with MCF-7 [2] was 10 μM and 10 µM (IC60) μM. Also, the “IC70, MCF-7” value in the series with MCF-7 [2] is 20 μM and 20 µM (IC70) μM. In addition, the viability at 72 h in series [3] lay in the range of 20 to 40%. For the same compound, the IC50 in the series with HCT-15 is 110 ± 21.9 µM; in the series with HSF [4], over 100 µM; in the series on NCI-H322M, over 100 µM; with MDA-MB-231 [5], 0.34 ± 0.06 µM; with SNB-19 it was 1.05 ± 0.34 µM; in the series with C2C12, 0.81 ± 0.07 µM. Further, the IC50 in the series on MCF-7 [6] was 8.21 ± 2.93 µM; in the series with SF-539, 11.6 ± 8.55 µM; in the series on HSF [7] it was about 100 µM; in the series on PC-3, 40.3 ± 13.5 µM; with MDA-MB-231 [8] it was 47.6 ± 26.1 µM; with HCT-116 [9] it was 1.67 ± 0.02 µM. Moreover, the viability at 3 days, 100 µM in the series “Colony formation assay” is 30%. Further, the “Percentage of cells in early and late apoptosis” value with MCF-7 cells (MCF-7, 72 h, IC20–IC60 concentrations) is on record as “up to 25%”. Moreover, the “Accumulation of necrotic cells (in words)” value in the series with MCF-7 cells (MCF-7, concentration corresponding to IC60) is given as “no accumulation of necrotic cells”.
Turning to `COc1cccc2c1C(=O)c1c(O)c3c(c(O)c1C2=O)C[C@@](O)(C(=O)CO)C[C@@H]3O[C@H]1C[C@H](N)[C@H](O)[C@H](C)O1` [DOX, Doxorubicin, reference compound], in the series on HCT-116 [1], the “Effect on mitochondrial potential ΔΨ (in words)” value is listed as “significant number of cells with reduced mitochondrial potential”.
